Reference: patent publication US20250136722A1, “CYTOTOXICITY TARGETING CHIMERAS” (GLAXOSMITHKLINE INTELLECTUAL PROPERTY DEVELOPMENT LIMITED, priority 2021, published 2025)
Where “and” joins values, the source holds several entries; their conditions need not be identical. Equal values may be shown once.

What was measured:
[1] = test system: endogenous target monocytes in human PBMC; assay: PBMC ex vivo monocyte depletion flow cytometry assay (Example 200); type: cell-based; details: with anti-cotinine antibody SEQ ID NO: 11/12, 18-24 hours, read-out: Ex Vivo Depletion Assay pEC50 (converted)
Method: A human PBMC (peripheral blood mononuclear cells) monocyte depletion flow cytometry assay was developed to screen compounds in a 384-well plate format. This assay incorporated endogenous natural killer cells to deplete endogenous target monocytes.
To screen compounds in the human PBMC monocyte depletion flow cytometry assay, 11-point dose-response curves were made from 1 mM stocks in neat DMSO by serially diluting an ARM compound of Formula (I) four-fold into a 384-well plate row-wise. These serially diluted compounds were then stamped into a flat bottom polypropylene 384-well plate (Greiner Bio-One) at 100 nL/well. Fifty microliters of 30 μg/mL anti-cotinine antibody having a heavy chain sequence of SEQ ID NO: 11 and a light chain sequence of SEQ ID NO: 12 (rabbit variable region with human IgG1 Fc domain containing a DE mutation (S239D/1332E)) that had been diluted in assay medium (RPMI 1640 (Gibco) containing 10% fetal bovine serum (Gibco), 1% Glutamax (Gibco) and 1% sodium pyruvate (Corning) was added to the wells of the plate. The plate was centrifuged for 1 min at 500 rpm (revolutions per minute) and then shaken for 5 min at room temperature. The plate was incubated for 15 minutes at 37° C./5% CO2.
Frozen PBMC cells (HemaCare BioResearch) were thawed and centrifuged at 1,200 rpm for 4 minutes. The cells were diluted to a cell density of 2×10^6 cells/mL in assay medium. Fifty microliters of the diluted cells were added to the wells of the plate. The plate was centrifuged for 1 min at 500 rpm and incubated for 18-24 hours at 37° C./5% CO2.
After 18-24 hours incubation, 2 μL of 6.25 μg human FC block (BD Pharmingen) that was diluted in assay medium was added to the wells of the plate. The plate was centrifuged for 1 minute at 500 rpm and then incubated at room temperature for 15 minutes. Five microliters of 750 nM Helix NP NIR (Biolegend) that had been diluted in assay medium was added to the wells of the plate. Nine microliters of antibody cocktail containing 1/5 diluted fluorescein isothiocyanate (FITC) labeled anti-CD45 antibody (Beckman Coulter), PC7 labeled anti-CD14 antibody (Beckman Coulter) and phycoerythrin (PE) anti-CD4 antibody (Beckman Coulter) was then added to the wells of the plate. The plate was centrifuged for 1 min at 500 rpm and incubated for 30 minutes at 4-8° C. Samples from the plate were run on BD FACS Canto II flow cytometer and data was analyzed using FlowJo software.
ARMs compounds of Formula (I) of the invention were tested for the ability to deplete monocytes in the above assay in one or more experimental runs and the results are shown in Table 3 below. Potency of the compounds of the invention is reported as a pEC50 value. The pEC50 value is the negative log of the EC50 value, wherein the EC50 value is the half maximal effective concentration measured in molar (M). For compounds tested in more than one experimental run, the pEC50 value is reported as an average or as the individual values measured

[2] = target: Anti-cotinine antibody (SEQ ID NO: 11 / SEQ ID NO: 12, rabbit variable region with human IgG1 Fc domain); assay: Binding of anti-cotinine antibody to ARM compounds by SPR, Biacore T200, 37° C. (Example 202); details: pH 7.4, rabbit variable region/human IgG1 Fc antibody captured on protein A
In short: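 Run at 37° C. in 10 mM HEPES pH 7.4, 150 mM NaCl, 0.005% P20, 1% DMSO. Compound titrated from 200 nM (five 3-fold steps) over protein A-captured antibody, with 200/2000 s association/dissociation. 1:1 kinetic fit gave kon, koff, Kd and residence time (1/koff); pKd averaged where runs repeated.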

[3] = target: human alpha1 nicotinic acetylcholine (nACh) receptor (Homo sapiens, UniProt P02708+Q07001); assay: Nicotinic acetylcholine receptor antagonism assay, IONFlux automated patch clamp (Example 203); type: cell-based; details: for Emax at 100 µM: maximum percentage antagonism at maximum concentration tested 100 μM; for IC50: nAChR antagonism, ACh stimulated, patch clamp; for Emax at 10 µM: maximum percentage antagonism at maximum concentration tested 10 μM
human alpha1 nicotinic acetylcholine (nACh) receptor, sequence (P02708 21-457): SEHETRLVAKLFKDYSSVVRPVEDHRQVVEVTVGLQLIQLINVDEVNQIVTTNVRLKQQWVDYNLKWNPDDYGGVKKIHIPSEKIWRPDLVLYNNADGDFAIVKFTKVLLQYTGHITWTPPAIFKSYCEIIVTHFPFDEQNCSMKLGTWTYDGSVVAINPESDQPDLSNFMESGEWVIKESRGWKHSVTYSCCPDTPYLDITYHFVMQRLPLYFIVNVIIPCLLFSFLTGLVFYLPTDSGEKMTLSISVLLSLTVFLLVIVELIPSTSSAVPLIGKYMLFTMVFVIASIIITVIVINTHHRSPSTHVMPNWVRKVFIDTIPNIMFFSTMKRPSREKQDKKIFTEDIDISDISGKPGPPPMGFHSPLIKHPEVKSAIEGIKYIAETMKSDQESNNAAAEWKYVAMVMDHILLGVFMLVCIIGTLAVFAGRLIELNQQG
human alpha1 nicotinic acetylcholine (nACh) receptor, sequence (P11230 24-501 partner): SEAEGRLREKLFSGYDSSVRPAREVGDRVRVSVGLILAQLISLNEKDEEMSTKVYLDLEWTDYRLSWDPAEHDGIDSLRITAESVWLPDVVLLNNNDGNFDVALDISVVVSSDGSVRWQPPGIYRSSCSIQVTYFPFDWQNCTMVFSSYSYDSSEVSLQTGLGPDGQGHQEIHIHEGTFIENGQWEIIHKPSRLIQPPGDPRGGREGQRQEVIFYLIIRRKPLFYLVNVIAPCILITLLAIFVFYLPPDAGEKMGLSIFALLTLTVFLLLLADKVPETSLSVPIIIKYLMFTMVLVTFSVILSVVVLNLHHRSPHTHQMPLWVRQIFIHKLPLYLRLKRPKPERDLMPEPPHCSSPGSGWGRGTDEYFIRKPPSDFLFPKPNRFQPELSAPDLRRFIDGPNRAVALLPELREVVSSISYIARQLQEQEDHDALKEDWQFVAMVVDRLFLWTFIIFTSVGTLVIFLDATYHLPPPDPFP
human alpha1 nicotinic acetylcholine (nACh) receptor, sequence (Q07001 22-517): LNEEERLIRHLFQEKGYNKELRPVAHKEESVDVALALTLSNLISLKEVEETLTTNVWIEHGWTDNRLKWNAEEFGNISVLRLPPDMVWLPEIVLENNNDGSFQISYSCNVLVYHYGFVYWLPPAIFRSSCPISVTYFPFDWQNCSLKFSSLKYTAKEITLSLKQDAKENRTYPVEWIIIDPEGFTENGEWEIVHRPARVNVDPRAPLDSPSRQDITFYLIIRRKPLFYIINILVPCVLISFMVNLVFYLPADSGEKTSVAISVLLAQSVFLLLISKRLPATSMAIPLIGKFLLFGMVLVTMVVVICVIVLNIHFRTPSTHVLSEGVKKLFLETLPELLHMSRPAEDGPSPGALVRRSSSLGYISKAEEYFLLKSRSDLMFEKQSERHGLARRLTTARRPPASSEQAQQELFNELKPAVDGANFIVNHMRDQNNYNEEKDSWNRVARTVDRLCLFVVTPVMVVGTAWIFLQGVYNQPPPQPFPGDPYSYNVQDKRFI
In short: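 Human α1 nAChR-expressing cells were preincubated with compound (top 10 μM or 100 μM), then stimulated with 10 mM ACh; peak currents were recorded by IONFlux automated patch clamp. Percent inhibition versus ACh-alone control was vehicle- and rundown-corrected, then fitted to give IC50, with maximal antagonism at the top concentration; recordings with control current <500 pA were excluded.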

[4] = target: T1, CHOK1 cells engineered to overexpress human CCR2 (Homo sapiens, UniProt P41597); assay: Antibody dependent cellular cytotoxicity (ADCC) reporter assay (Example 199); type: cell-based; details: with anti-cotinine antibody SEQ ID NO: 11/12; CHOK1-human CCR2 target cells, Jurkat FcγRIIIa NFAT-luciferase reporter cells; 12-18 hours; read-out: ADCC Reporter Assay pEC50 (converted)
T1 construct: expressed in transfected cells; host or cells: CHOK1 cells
In short: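 Potency is reported as pEC50 from a nonlinear fit, averaged over runs, using luciferase signal divided by that of compound-free wells. The readout comes from NFAT-luciferase Jurkat cells expressing FcγRIIIa, mixed for 12–18 h with human CCR2-overexpressing CHOK1 cells, 1 pM–10 μM ARM compound and 0.01–200 μg/mL Fc-enhanced anti-cotinine IgG1.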

| Compound | EC50 [1] | pKd of Antibody for ARM Compound of Formula (I) [2] | Emax at 100 µM ([3]; read-out: Maximum Response (%)) | IC50 [3] | EC50 [4] | Emax at 10 µM ([3]; read-out: Maximum Response (%)) | Emax at 30 µM ([3]; maximum percentage antagonism at maximum concentration tested 30 μM, read-out: Maximum Response (%)) | Emax at 11.11 µM ([3]; maximum percentage antagonism at maximum concentration tested 11.11 μM, read-out: Maximum Response (%)) |
| --- | --- | --- | --- | --- | --- | --- | --- | --- |
| CC(C)N(C)C1CCC(N2CC[C@H](Nc3ncnc4ccc(C(F)(F)F)cc34)C2=O)[C@H](N[C@H]2CC[C@@H](C(=O)NCCOCCOCCOCCOCCNC(=O)[C@H]3CC(=O)N(C)[C@@H]3c3cccnc3)CC2)C1 (some centres unmarked) [Example 67] | 3.98 nM |  |  |  |  |  |  |  |
| CC(C)N(C)[C@@H]1CC[C@H](N2CC[C@H](Nc3ncnc4ccc(C(F)(F)F)cc34)C2=O)[C@H](NC(=O)[C@H]2CC[C@@H](NC(=O)CCOCCOCCNC(=O)CNC(=O)[C@H]3CC(=O)N(C)[C@@H]3c3cccnc3)CC2)C1 [Example 63, (2S,3S)-N-(2-((2-(2-(3-(((1 S,4s)-4-(((1R,2S,5R)-5-(Isopropyl(methyl)amino)-2-((S)-2-oxo-3-((6-(trifluoromethyl)quinazolin-4-yl)amino)pyrrolidin-1-yl)cyclohexyl)carbamoyl)cyclohexyl)amino)-3-oxopropoxy)ethoxy)ethyl)amino)-2-oxoethyl)-1-methyl-5-oxo-2-(pyridin-3-yl)pyrrolidine-3-carboxamide] |  | 8.674 | 76.6% | 38500 nM | 0.67 nM and 0.31 nM |  |  |  |
| CC(C)N(C)[C@@H]1CC[C@H](N2CC[C@H](Nc3ncnc4ccc(C(F)(F)F)cc34)C2=O)[C@H](NC(=O)[C@H]2CC[C@@H](C3CCN(C(=O)CCOCCOCCNC(=O)[C@H]4CC(=O)N(C)[C@@H]4c4cccnc4)CC3)CC2)C1 [Example 72, (2S,3S)-N-(2-(2-(3-(4-((1S,4s)-4-(((1R,2S,5R)-5-(isopropyl(methyl)amino)-2-((S)-2-oxo-3-((6-(trifluoromethyl)quinazolin-4-yl)amino)pyrrolidin-1-yl)cyclohexyl)carbamoyl)cyclohexyl)piperidin-1-yl)-3-oxopropoxy)ethoxy)ethyl)-1-methyl-5-oxo-2-(pyridin-3-yl)pyrrolidine-3-carboxamide] |  | 9.8865 |  | > 10000 nM | 7.94 nM | 32.7% |  |  |
| CCN1C(=O)C[C@H](C(=O)NCCOCCOCCOCCC(=O)N[C@H]2CC[C@@H](C(=O)N[C@@H]3C[C@H](NC(C)(C)C)CC[C@@H]3N3CC[C@H](Nc4ncnc5ccc(C(F)(F)F)cc45)C3=O)CC2)[C@H]1c1cccnc1 [Example 35] |  | 9.785 | 52.3% | 89200 nM | 2.51 nM |  |  |  |
| CC(C)N(C)[C@@H]1CC[C@H](N2CC[C@H](Nc3ncnc4ccc(C(F)(F)F)cc34)C2=O)[C@H](NC(=O)CCOCCNC(=O)CCOCCNC(=O)COCCNC(=O)[C@H]2CC(=O)N(C)[C@@H]2c2cccnc2)C1 [Example 105] |  | 9.0705 | 75.7% | 38900 nM | 0.794 nM |  |  |  |
| CC(C)N(C)[C@@H]1CC[C@H](N2CC[C@H](Nc3ncnc4ccc(C(F)(F)F)cc34)C2=O)[C@H](NC(=O)CCOCCNC(=O)[C@H]2CC[C@@H](NC(=O)COCCNC(=O)[C@H]3CC(=O)N(C)[C@@H]3c3cccnc3)CC2)C1 [Example 107, (2S,3S)-N-(2-(2-(((1S,4R)-4-((2-(3-(((1R,2S,5R)-5-(Isopropyl(methyl)amino)-2-((S)-2-oxo-3-((6-(trifluoromethyl)quinazolin-4-yl)amino)pyrrolidin-1-yl)cyclohexyl)amino)-3-oxopropoxy)ethyl)carbamoyl)cyclohexyl)amino)-2-oxoethoxy)ethyl)-1-methyl-5-oxo-2-(pyridin-3-yl)pyrrolidine-3-carboxamide] |  | 9.161 |  | > 10000 nM | 0.158 nM | 12.2% |  |  |
| CC(C)N(C)[C@@H]1CC[C@H](N2CC[C@H](Nc3ncnc4ccc(C(F)(F)F)cc34)C2=O)[C@H](NC(=O)[C@H]2CC[C@H](NC(=O)CCCOC[C@H]3CC[C@@H](COCCNC(=O)[C@H]4CC(=O)N(C)[C@@H]4c4cccnc4)CC3)CC2)C1 [Example 57, (2S,3S)-N-(2-(((1S,4R)-4-((4-(((1R,4R)-4-(((1R,2S,5R)-5-(Isopropyl(methyl)amino)-2-((S)-2-oxo-3-((6-(trifluoromethyl)quinazolin-4-yl)amino)pyrrolidin-1-yl)cyclohexyl)carbamoyl)cyclohexyl)amino)-4-oxobutoxy)methyl)cyclohexyl)methoxy)ethyl)-1-methyl-5-oxo-2-(pyridin-3-yl)pyrrolidine-3-carboxamide] |  | 9.685 |  | > 30000 nM | 1.61 nM and 1.48 nM and 5.07 nM |  | 47.6% |  |
| CC(C)N(C)[C@@H]1CC[C@H](N2CC[C@H](Nc3ncnc4ccc(C(F)(F)F)cc34)C2=O)[C@H](NC(=O)CCOCCNC(=O)CCCO[C@H]2CC[C@H](OCCNC(=O)[C@H]3CC(=O)N(C)[C@@H]3c3cccnc3)CC2)C1 [Example 7] |  | 9.2515 | 95% | 13700 nM | 0.182 nM |  |  |  |
| CC(C)N(C)[C@@H]1CC[C@H](N2CC[C@H](Nc3ncnc4ccc(C(F)(F)F)cc34)C2=O)[C@H](NC(=O)[C@H]2CC[C@H](C(=O)NCCCOCCCCOCCCNC(=O)[C@H]3CC(=O)N(C)[C@@H]3c3cccnc3)CC2)C1 [Example 194, (1 r,4R)-N^1-((1R,2S,5R)-5-(Isopropyl(methyl)amino)-2-((S)-2-oxo-3-((6-(trifluoromethyl)quinazolin-4-yl)amino)pyrrolidin-1-yl)cyclohexyl)-N^4-(3-(4-(3-((2S,3S)-1-methyl-5-oxo-2-(pyridin-3-yl)pyrrolidine-3-carboxamido)propoxy)butoxy)propyl)cyclohexane-1,4-dicarboxamide] |  | 9.5415 | 44.9% | > 100000 nM | 0.275 nM |  |  |  |
| CC(C)N(C)[C@@H]1CC[C@H](N2CC[C@H](Nc3ncnc4ccc(C(F)(F)F)cc34)C2=O)[C@H](NC(=O)[C@H]2CC[C@H](NC(=O)CCOC[C@H]3CC[C@H](COCCNC(=O)[C@H]4CC(=O)N(C)[C@@H]4c4cccnc4)CC3)CC2)C1 [Example 53, (2S,3S)-N-(2-(((1R,4S)-4-((3-(((1R,4R)-4-(((1R,2S,5R)-5-(Isopropyl(methyl)amino)-2-((S)-2-oxo-3-((6-(trifluoromethyl)quinazolin-4-yl)amino)pyrrolidin-1-yl)cyclohexyl)carbamoyl)cyclohexyl)amino)-3-oxopropoxy)methyl)cyclohexyl)methoxy)ethyl)-1-methyl-5-oxo-2-(pyridin-3-yl)pyrrolidine-3-carboxamide] |  | 9.531 |  | > 11100 nM | 7.6 nM |  |  | 10% |
| CC(C)N(C)[C@@H]1CC[C@H](N2CC[C@H](Nc3ncnc4ccc(C(F)(F)F)cc34)C2=O)[C@H](NC(=O)[C@H]2CC[C@H](NC(=O)CCOCCOCCOCCNC(=O)[C@H]3CC(=O)N(C)[C@@H]3c3cccnc3)CC2)C1 [Example 30] |  | 9.3155 |  | > 10000 nM | 7.53 nM | 5.4% |  |  |
